Measured values reported in US20220089575A1, “FARNESOID X RECEPTOR AGONISTS AND USES THEREOF” (Metacrine, Inc., priority 2017, published 2022).

The molecules below were run against T1, hFXR (Homo sapiens, UniProt Q96RI1) (assay: In Vitro FXR Assay (TK): TK-ECRE-luc reporter in transfected CV-1 cells). Details: 18 hrs, luminescence, maximum efficacy of <25% of the Fexarmine control classified as '+'.
T1 construct: expressed in transfected cells; host or cells: CV-1 cells
T1 sequence (Q96RI1 1-486): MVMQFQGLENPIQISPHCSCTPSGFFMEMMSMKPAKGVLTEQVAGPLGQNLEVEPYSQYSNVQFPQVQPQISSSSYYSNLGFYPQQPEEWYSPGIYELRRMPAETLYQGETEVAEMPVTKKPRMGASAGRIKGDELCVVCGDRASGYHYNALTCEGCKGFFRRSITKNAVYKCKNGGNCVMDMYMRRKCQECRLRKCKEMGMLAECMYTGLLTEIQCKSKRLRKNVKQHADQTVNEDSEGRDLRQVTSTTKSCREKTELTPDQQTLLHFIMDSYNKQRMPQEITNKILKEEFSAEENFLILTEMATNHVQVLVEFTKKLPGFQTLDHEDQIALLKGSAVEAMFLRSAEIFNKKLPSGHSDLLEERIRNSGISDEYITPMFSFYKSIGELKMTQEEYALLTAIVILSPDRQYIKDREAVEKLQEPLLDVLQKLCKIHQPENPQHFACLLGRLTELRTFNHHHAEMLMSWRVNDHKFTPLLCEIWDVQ
T1 sequence (P19793 1-462 partner): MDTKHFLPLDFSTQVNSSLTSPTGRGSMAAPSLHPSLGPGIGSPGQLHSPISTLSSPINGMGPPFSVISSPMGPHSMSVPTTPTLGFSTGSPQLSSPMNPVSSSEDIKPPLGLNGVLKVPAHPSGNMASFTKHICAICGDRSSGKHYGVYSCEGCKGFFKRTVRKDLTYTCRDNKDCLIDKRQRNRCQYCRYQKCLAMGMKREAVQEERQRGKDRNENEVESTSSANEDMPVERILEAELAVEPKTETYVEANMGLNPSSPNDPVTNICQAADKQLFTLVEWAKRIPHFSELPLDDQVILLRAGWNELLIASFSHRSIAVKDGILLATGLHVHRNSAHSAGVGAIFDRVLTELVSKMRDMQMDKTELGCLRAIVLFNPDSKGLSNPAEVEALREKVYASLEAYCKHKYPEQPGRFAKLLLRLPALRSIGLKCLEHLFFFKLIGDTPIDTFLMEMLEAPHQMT
Type: cell-based
Procedure, shortened: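 Luciferase luminescence read-out from lysed CV-1 cells transiently co-expressing hFXR and hRXR with a TK-ECRE-luc reporter (pCMX-YFP co-transfected). Compound exposure lasted 18 h at 37 °C, 5% CO2, in medium containing charcoal super-stripped serum.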

EC50 [nM] | SMILES
≤ 250 | CN(C)c1ccc([C@H]2CC[C@H](CN(c3cccc(-c4cnc(C5CC5)s4)c3)C(=O)[C@H]3CC[C@H](OC(=O)N4CC(O)C4)CC3)CC2)cn1 [Compound 7.01, trans-4-((3-(2-Cyclopropylthiazol-5-yl)phenyl)((trans-4-(6-(dimethylamino)pyridin-3-yl)cyclohexyl)methyl)carbamoyl)cyclohexyl 3-hydroxyazetidine-1-carboxylate]
≤ 250 | COc1ccc([C@H]2CC[C@H](CN(c3cc(-c4coc(C(C)C)n4)ccn3)C(=O)[C@H]3CC[C@H](OC(=O)N4CCN(C)CC4)CC3)CC2)nc1C [Compound 6.77, trans-4-((4-(2-Isopropyloxazol-4-yl)pyridine-2-yl)((trans-4-(5-methoxy-6-methylpyridin-2-yl)cyclohexyl)methyl)carbamoyl)cyclohexyl 4-methylpiperazine-1-carboxylate]
≤ 250 | COc1ccc(C23CCC(CN(c4cc(-c5cnn(C6CC6)c5)ccn4)C(=O)[C@H]4CC[C@H](C(=O)O)CC4)(CC2)CC3)cc1C [Compound 17.19, trans-4-((4-(1-Cyclopropyl-1H-pyrazol-4-yl)pyridin-2-yl)((4-(4-methoxy-3-methylphenyl)bicyclo[2.2.2]octan-1-yl)methyl)carbamoyl) cyclohexanecarboxylic acid]
≤ 250 | COc1ccc([C@H]2CC[C@H](CN(c3cccc(-c4cnn(C(C)C)c4)c3)C(=O)[C@H]3CC[C@H](OC(=O)N4CC(N(C)C)C4)CC3)CC2)nc1C [Compound 7.53, trans-4-((3-(1-Isopropyl-1H-pyrazol-4-yl)phenyl)((trans-4-(5-methoxy-6-methylpyridin-2-yl)cyclohexyl)methyl)carbamoyl)cyclohexyl 3-(dimethylamino)azetidine-1-carboxylate]
≤ 250 | CNC(=O)O[C@H]1CC[C@H](C(=O)N(C[C@H]2CC[C@H](c3ccc(OC)c(C)c3)CC2)c2cccc(-c3cnc(N(C)C)nc3)c2)CC1 [Compound 5.38, trans-4-((3-(2-(Dimethylamino)pyrimidin-5-yl)phenyl)((trans-4-(4-methoxy-3-methylphenyl)cyclohexyl)methyl)carbamoyl)cyclohexyl methylcarbamate]
≤ 250 | COc1ccc([C@H]2CC[C@H](CN(c3cc(-c4coc(C5CC5)n4)ccn3)C(=O)[C@H]3CC[C@H](OC(=O)N4CCN(C(C)C)CC4)CC3)CC2)nc1C [Compound 6.82, trans-4-((4-(2-Cyclopropyloxazol-4-yl)pyridine-2-yl)((trans-4-(5-methoxy-6-methylpyridin-2-yl)cyclohexyl)methyl)carbamoyl)cyclohexyl 4-isopropylpiperazine-1-carboxylate]
≤ 250 | COc1ncc(-c2cccc(N(C[C@H]3CC[C@H](c4ccc(OC)c(C)c4)CC3)C(=O)[C@H]3CC[C@H](CO)CC3)c2)s1 [Compound 15.01, trans-4-(Hydroxymethyl)-N-((trans-4-(4-methoxy-3-methylphenyl)cyclohexyl)methyl)-N-(3-(2-methoxythiazol-5-yl)phenyl)cyclohexanecarboxamide]
250 to 1000 | COc1ccc([C@H]2CC[C@H](CN(c3cc(-c4coc(C5CC5)n4)ccn3)C(=O)[C@H]3CC[C@H](OC(=O)N4CC(CC(=O)O)C4)CC3)CC2)nc1C [Compound 7.86, 2-(1-(((trans-4-((4-(2-Cyclopropyloxazol-4-yl)pyridine-2-yl) ((trans-4-(5-methoxy-6-methylpyridin-2-yl)cyclohexyl)methyl)carbamoyl)cyclohexyl)oxy)carbonyl)azetidin-3-yl)acetic acid]
≤ 250 | COC(=O)[C@H]1CC[C@H](C(=O)N(C[C@H]2CC[C@H](c3ccc(N(C)C)nc3)CC2)c2cccc(-c3cnn(C4CC4)c3)c2)CC1 [Compound 18.14, trans-Methyl 4-((3-(1-cyclopropyl-1H-pyrazol-4-yl)phenyl)((trans-4-(6-(dimethylamino)pyridin-3-yl)cyclohexyl)methyl)carbamoyl) cyclohexanecarboxylate]
250 to 1000 | COc1ncc(-c2cccc(N(C[C@H]3CC[C@H](c4ccc(OC)c(C)c4)CC3)C(=O)[C@H]3CC[C@H](CNC(=O)OC(C)(C)C)CC3)c2)s1 [Compound 25.02, tert-Butyl ((trans-4-(((trans-4-(4-methoxy-3-methylphenyl)cyclohexyl)methyl)(3-(2-methoxythiazol-5-yl)phenyl)carbamoyl)cyclohexyl)methyl)carbamate]
≤ 250 | CNC(=O)O[C@]1(C)CC[C@@H](C(=O)N(C[C@H]2CC[C@H](c3ccc(OC)c(C)c3)CC2)c2cccc(-c3cnn(C(C)C)c3)c2)CC1 [Compound 5.52, trans-4-((3-(1-Isopropyl-1H-pyrazol-4-yl)phenyl)((trans-4-(4-methoxy-3-methylphenyl)cyclohexyl)methyl)carbamoyl)-1-methylcyclohexyl methylcarbamate]
≤ 250 | COc1ccc([C@H]2CC[C@H](CN(c3cc(-c4cnc(C5CC5)s4)ccn3)C(=O)[C@H]3CC[C@H](OC(=O)N4CC(O)C4)CC3)CC2)cc1C#N [Compound 7.08, trans-4-(((trans-4-(3-Cyano-4-methoxyphenyl)cyclohexyl)methyl)(4-(2-cyclopropylthiazol-5-yl)pyridin-2-yl)carbamoyl)cyclohexyl 3-hydroxyazetidine-1-carboxylate]
≤ 250 | COc1ccc([C@H]2CC[C@H](CN(c3cc(-c4coc(C5CC5)n4)ccn3)C(=O)[C@H]3CC[C@H](OC(=O)NC(C)C)CC3)CC2)nc1C [Compound 6.58, trans-4-((4-(2-Cyclopropyloxazol-4-yl)pyridine-2-yl)((trans-4-(5-methoxy-6-methylpyridin-2-yl)cyclohexyl)methyl)carbamoyl)cyclohexyl isopropylcarbamate]
≤ 250 | COc1ccc([C@H]2CC[C@H](CN(c3cccc(-c4coc(C5CC5)n4)c3)C(=O)[C@H]3CC[C@H](OC(=O)N4CC(O)C4)CC3)CC2)cc1C#N [Compound 7.68, trans-4-(((trans-4-(3-Cyano-4-methoxyphenyl)cyclohexyl)methyl)(3-(2-cyclopropyloxazol-4-yl)phenyl)carbamoyl)cyclohexyl 3-hydroxyazetidine-1-carboxylate]
≤ 250 | COc1ccc([C@H]2CC[C@H](CN(c3cc(-c4cnc(C5CC5)s4)ccn3)C(=O)[C@H]3CC[C@H](C(=O)O)CC3)CC2)cc1C [Compound 17.09, trans-4-((4-(2-Cyclopropylthiazol-5-yl)pyridin-2-yl)((trans-4-(4-methoxy-3-methylphenyl)cyclohexyl)methyl)carbamoyl)cyclohexanecarboxylic acid]
≤ 250 | COc1ccc([C@H]2CC[C@H](CN(c3cc(-c4coc(C5CC5)n4)ccn3)C(=O)[C@H]3CC[C@H](NC(C)=O)CC3)CC2)cc1C [Compound 26.20, trans-4-Acetamido-N-(4-(2-cyclopropyloxazol-4-yl)pyridine-2-yl)-N-((trans-4-(4-methoxy-3-methylphenyl)cyclohexyl)methyl) cyclohexanecarboxamide]
≤ 250 | COc1ccc([C@H]2CC[C@H](CN(c3cc(-c4coc(C5CC5)n4)ccn3)C(=O)[C@H]3CC[C@H](OC(=O)N4CCOCC4)CC3)CC2)nc1C [Compound 6.59, trans-4-((4-(2-Cyclopropyloxazol-4-yl)pyridine-2-yl)((trans-4-(5-methoxy-6-methylpyridin-2-yl)cyclohexyl)methyl)carbamoyl)cyclohexyl morpholine-4-carboxylate]
